How the values were obtained:
ICR mice = experiment: Scratch bouts of ICR mice after 10% SDS application (Sample Experiment 1-1); format: in vivo, mouse; conditions: ICR mice of 10% SDS group at Day 3, TRF 30 mg/kg oral, 30 mins. before observation, 60 mins. count
Procedure: The present Sample Experiment was conducted using ICR mice, and an anionic surfactant, namely, sodium dodecyl sulfate (SDS), was used as a stimulating substance to analyze the scratch bouts of mice. After SDS had been applied, terfenadine (TRF) was administered as an antihistamine to determine its effect on scratch bouts.
Male ICR mice at ages of 7 to 8 weeks, purchased from Japan SLC, were used. The mice were given solid feed under free water supply and subjected to preliminary rearing for 7 days or longer under a constant temperature/constant humidity environment with a temperature of 22±2° C., and a humidity of 55±10% before they were used in the test. The mice for use were used in the test at least 3 days after shearing/depilating the rostral back of each mouse. […]
The scratch bouts of mice were performed in view of the Kuraishi et al. report. That is, a single mouse was put in each chamber of the 4 divided sections in an acrylic box (13×9×35 cm) to be acclimated for at least an hour, and they were video recorded in an environment without any person for at least an hour a day from the day of applying the above 10% SDS aqueous solution (Day 0) to the 4th day after application (Day 4) to record their movement. Then, by watching the video, the number of scratch bouts against the rostral back by the hind leg was counted. […]

[1] = tested on: mast cell deficient mice (WBB6F1-W/W^V) and normal control mice (WBB6F1-+/+); experiment: Scratch bouts of mice after 10% sodium laurate application (Sample Experiment 2); format: in vivo, mouse; conditions: 10% SL aqueous solution 50 μL single application, 2 hrs. after application, both mast cell deficient and normal control mice
Procedure: Male mast cell deficient mice at ages of 7 to 8 weeks (WBB6F1-W/W^V mouse), purchased from Japan SLC, and normal control mice that are wild mice at ages of 7 to 8 weeks (WBB6F1-+/+mouse) were used. They were given solid feed under free water supply and subjected to preliminary rearing for 7 days or longer under a constant temperature/constant humidity environment with a temperature of 22±2° C., and a humidity of 55±10% before they were used in the test. The mice for use were subjected to the test at least 3 days after shearing/depilating of the rostral back. […] That is, a single mouse was put in each of the 4 divided sections of an acrylic box (13×9×35 cm) to be acclimated for at least 1 hr., and they were video recorded in an environment without any person to record their action. Then, by watching the video, the number of scratch bouts against the rostral back by the hind leg was counted. A series of scratching movements (movements that include scratching the rostal back, where the solution is applied, with the hind leg, then dropping the hind leg to the ground) was counted as 1 count, and the number of times scratching was performed in 60 mins. was counted by visual observation. […]

[2] = tested on: histamine and active HDC (53 kDa) in mouse epidermis and dermis; experiment: Histamine amount and HDC activation in ICR mouse skin after 10% sodium laurate (Sample Experiment 3); format: in vivo; conditions: ICR mice
Procedure: Male ICR mice at ages of 7 to 8 weeks, purchased from Japan SLC, were used. They were given solid feed under free water supply and subjected to preliminary rearing for 7 days or longer under a constant temperature/constant humidity environment with a temperature of 22±2° C., and a humidity of 55±10% before they were used in the test. The mice for use were subjected to the test at least 3 days after shearing/depilating of the rostral back. A 10% aqueous solution obtained by dissolving SL in distilled water was applied as a stimulating substance against the skin at 50 μL to the sheared/depilated rostral back of the mice mentioned above. Distilled water was applied to the solvent control group (Vehicle). Note concerning FIG. 5 and FIG. 6 to be described later that the mice that were not treated with the above SL aqueous solution or distilled water are called “NT (not treated).” The amount of histamine in skin was measured before applying a surfactant, 2 hrs. after application, and 24 hrs. after application (the time of application was set to 0 hr.). Skins were collected while the mice were under anesthesia after perfusion with a phosphate buffer solution (PBS) using the cardiac blood circulation system (punched out with a biopsy punch in a circular shape of a diameter of 18 mm). The amounts of histamine in the collected skins were measured. After the collected skins were immersed in PBS at 60° C. for 30 secs., they were separated into the epidermis and the dermis. Then, the amounts of histamine in the epidermis and the dermis were measured using the measurement kit. To measure the amount of histamine, tissues of both the epidermis and the dermis were pulverized to create tissue suspensions, which were subjected to centrifugation, then supernatants were collected to measure the amounts of histamine in the supernatants.

[3] = 2 hrs. after 10% SL application
[4] = 24 hrs. after 10% SL application

SMILES | scratch bouts of SDS-treated mice after TRF, After vs Before (ICR mice) | scratch bouts of mice (number in 60 mins.) after stimulating substance [1] | active HDC (53 kDa) in mouse epidermis [2, 3] | histamine level in the epidermis [2, 3] | active HDC (53 kDa) in mouse epidermis [2, 4] | histamine level in the epidermis [2, 4] | histamine level of the dermis ([2]; before, 2 hrs. and 24 hrs. after 10% SL application)
CC(C)(C)c1ccc(C(O)CCCN2CCC(C(O)(c3ccccc3)c3ccccc3)CC2)cc1 (stereo not shown) [TRF, terfenadine] | effectively suppressed |  |  |  |  |  | 
CCCCCCCCCCCC(=O)[O-].[Na+] [SL, sodium laurate] |  | clearly increased | increased significantly | increased | returned to the pre-application level | returned to the pre-application level | no substantial change was observed

Reference: patent US20150335558A1, “NERVE GROWTH INHIBITOR, CUTANEOUS-SENSORY-IRRITATION INHIBITOR, AND MARKER FOR CUTANEOUS-SENSORY-IRRITATION DETECTION” (HOYU CO., LTD., priority 2012, published 2015)
